In patent US20170071944A1, “MODULATORS OF TOLL-LIKE RECEPTORS FOR THE TREATMENT OF HIV” (Gilead Sciences, Inc., priority 2015, published 2017):
Where “and” joins values, the source holds several entries; their conditions need not be identical. Equal values may be shown once.

What was measured:
Assay type in all cases: cell-based, human
[1] = tested on: HIV-1 expression in PBMC cultures from HIV-1 infected subjects on cART; assay: Induced HIV-1 expression in PBMC cultures from HIV-1 infected subjects on cART (HIV-1 RNA in culture supernatant, COBAS TaqMan); conditions: for Fold HIV-1 Activation, Geometric Mean with ≧2-Fold-Activation / Fold HIV-1 Activation, Range with ≧2-Fold-Activation: N = 12 subjects
Procedure: In some experiments, IL-15, the TLR8 modulating compound of Example 15 or the combination of IL-15 and Example 15 were used at the indicated concentrations (Table 4). The cultures were maintained in the presence of antivirals (elvitegravir and efavirenz at 100 nM each) to prevent viral spread and amplification in order to measure the quantity of virus produced (latency reversal) by the TLR8 modulating compounds. At the end of the incubation period, cell-free culture supernatants were harvested and HIV-1 RNA levels were quantified by the COBAS® AmpliPrep/COBAS®TaqMan HIV-1 Test, v2.0 (Roche).
In each table, fold-activation is calculated as a ratio of HIV-1 RNA copies per ml of cell culture supernatants from TLR8 agonist treated samples and DMSO treated controls. Geometric mean fold-activation from three independent incubation samples for each condition of each subject's PBMCs.
To assess if the latency reversal induced by TLR8 agonism could further potentiate latency reversal by a separate mechanisms, we treated cells as described above with IL-15, Example 15, or a combination of IL-15 and Example 15 (Table 4).

HIV-infected CD4 T cells [2] = assay: PGT121 antibody-mediated killing of HIV-infected CD4 T cells, PBMC effector model
Text: (§1) NK cells and monocytes mediate antibody-dependent cellular cytotoxicity (ADCC) and antibody-dependent cellular phagocytosis (ADCP) respectively. To assess the ability of the compound of Example 15 to enhance ADCC and ADCP, two models were developed using monocytes or PBMCs as effector cells and HIV-infected CD4 T cells as target cells. PBMCs were isolated from 3 healthy subjects' leukaphereses (AllCells, participant IDs A4593, A4596, A4606), as described above. CD4 T cells were isolated from PBMCs using negative selection magnetic beads (EasySep, StemCell Technologies). CD4 T cells were spinfected with HIV-1 isolate 92HT593 (NIH AIDS Reagent Program) and cultured for 5 days at 37° C. For the PBMC model, autologous PBMCs were cultured for 5 days with vehicle control (DMSO) or Example 15 at 100 or 1000 nM. […] Marker staining was measured by flow cytometry using a LSR Fortessa (BD Biosciences) and analyzed with FlowJo software (TreeStar). The percent killing was determined by calculating the reduction of p24+ CD4+ T cells mediated by PGT121 antibody relative to a no antibody control.
(§2) PBMCs (FIG. 3) or monocytes (FIG. 4) were treated with DMSO or TLR8 agonist for 5 days (FIG. 3) or 1 day (FIG. 4) and then co-cultured for 1 day with autologous HIV-infected CD4 T cells−/+anti-HIV Env antibody PGT121. Reductions in % p24+ CD4+ T cells, relative to no antibody control, were measured by FACS. […]

HIV-infected CD4 T cells [3] = assay: PGT121 antibody-mediated killing of HIV-infected CD4 T cells, monocyte effector model; conditions: monocytes from 1 subject, 11 or 33 nM, 1 day
Text: as §1, §2

[4] = Example 15 1000 nM and/or IL-15 1 nM, subjects 205-210

CCCC[C@H](CO)Nc1nc(N)nc2cccnc12 [Example 15]
Fold HIV-1 Activation, Geometric Mean with ≧2-Fold-Activation ([1]; 10 nM): 4.6 fold | Fold HIV-1 Activation, Range with ≧2-Fold-Activation ([1]; 10 nM): 2.2-20.1 fold | N with ≧2-Fold-Activation (%) ([1]; 10 nM, subjects 172-183): (42) % | Fold HIV-1 Activation, Geometric Mean with ≧2-Fold-Activation ([1]; 100 nM): 4.8 fold | Fold HIV-1 Activation, Range with ≧2-Fold-Activation ([1]; 100 nM): 2.2-10.1 fold | N with ≧2-Fold-Activation (%) ([1]; 100 nM, subjects 172-183): (33) % | Fold HIV-1 Activation, Geometric Mean with ≧2-Fold-Activation ([1]; 1,000 nM): 3.4 fold | Fold HIV-1 Activation, Range with ≧2-Fold-Activation ([1]; 1,000 nM): 2.4-5.7 fold | N with ≧2-Fold-Activation (%) ([1]; 1,000 nM, subjects 172-183): (58) % | Fold HIV-1 Activation, Geometric Mean with ≧2-Fold-Activation ([1]; 10, 100, or 1000 nM): 4.4 fold | Fold HIV-1 Activation, Range with ≧2-Fold-Activation ([1]; 10, 100, or 1000 nM): 2.2-20.1 fold | Fold HIV-1 Activation ([1]; Example 15 10 nM, 4 days, individual subjects 172-183, vs DMSO): 2.6 fold and 2.2 fold and 4.7 fold and 1.2 fold and 1.9 fold and 1.3 fold and 0.3 fold and 0.5 fold and 1.0 fold and 4.1 fold and 20.1 fold and 0.8 fold | Fold HIV-1 Activation ([1]; Example 15 100 nM, 4 days, individual subjects 172-183, vs DMSO): 3.8 fold and 6.6 fold and 2.2 fold and 1.5 fold and 1.0 fold and 0.5 fold and 0.2 fold and 0.1 fold and 0.7 fold and 1.8 fold and 10.1 fold and 1.3 fold | Fold HIV-1 Activation, Geometric Mean ([1]; Example 15 1000 nM and/or IL-15 1 nM, N = 6 subjects): 2.1 fold | Fold HIV-1 Activation ([1]; Example 15 1000 nM and/or IL-15 1 nM, individual subjects 205-210, vs DMSO): 4.7 fold and 0.8 fold and 9.7 fold and 2.0 fold and 1.9 fold and 0.6 fold | N with ≧2-Fold-Activation [1, 4]: 3 of 6 | N with ≧2-Fold-Activation (%) [1, 4]: 50% | Fold HIV-1 Activation ([1]; Example 15 1,000 nM, 4 days, individual subjects 172-183, vs DMSO): 2.7 fold and 2.4 fold and 3.3 fold and 1.2 fold and 4.7 fold and 0.3 fold (2×) and 3.4 fold and 3.0 fold and 1.3 fold and 1.6 fold and 5.7 fold | PGT121-mediated killing of HIV-infected CD4+ T cells, geometric mean area under the curve (AUC) (HIV-infected CD4 T cells [2]; PBMCs from 3 subjects pre-treated 5 days at 100 nM, 108 for the DMSO control): 172 | Increase of AUC of PGT121-mediated killing compared to DMSO control (HIV-infected CD4 T cells [2]; PBMCs from 3 subjects, 100 nM): 60% | PGT121-mediated killing of HIV-infected CD4+ T cells compared to the DMSO control (HIV-infected CD4 T cells [3]): markedly enhanced
